Experimental data reported in patent publication US11352421B2, “Treatment for adverse immune reaction to metal implant debris” (RUSH UNIVERSITY MEDICAL CENTER, priority 2018, dated 2022).
*: point of attachment. Cbz = O=C(OCc1ccccc1)*; CH2F = FC*

Assays:
[1] = tested on: IL-17A/F; assay: Sandwich ELISA for human IL-17A/F in supernatants of metal-challenged PBMCs; assay type: cell-based; settings: metal-reactive individuals' lymphocytes; supernatants harvested on day 6
Description: (§1) Isolated human PBMCs were co-incubated in vitro with either MCC950, a NLRP3 inflammasome inhibitor (InvivoGen), Caspase-1 inhibitor (Caspase-1/ICE inhibitor Z-WEHD-FMK) or recombinant human IL-1Ra (R&D Systems. Inc., Minneapolis, Minn.) for metal-LTT assay or cytokine analysis according to manufacturer's protocol and working concentration. Caicedo et al., J. Biomed. Mater. Res. A 93(4):1312-1321 (2010).
(§2) Isolated human PBMCs were co-incubated in vitro with IL-17A monoclonal antibody (eBio64CAP17; ThermoFisher Scientific) for neutralization of IL-17A bioactivity for metal-lymphocyte transformation test assay or cytokine analysis according to the manufacturer's protocol and concentration.
(§3) Sandwich ELISAs for mouse IL-17A/F and IFN-γ (R&D Systems Inc., Minneapolis, Minn.) were used to detect cytokine production in both non-sensitized and metal-sensitized female mouse spleens and isolated CD4+ T-cells that were harvested 48 h post paw re-challenge to metal allergen (day 14). Supernatants from control and metal-challenged murine cells were collected after 4 days. […] All samples for ELISA were performed in triplicate in 96 well plates and were stored at −80° C. until analysis, following manufacturer's protocol.

[2] = tested on: human peripheral blood mononuclear cells; assay: Metal-LTT of human lymphocytes (PBMCs): proliferation by 3H-thymidine incorporation with inflammasome or IL-17A inhibitors; assay type: cell-based; settings: for lymphocyte proliferation in response to Ni in the presence of inhibitor / lymphocyte proliferation to Ni combined with inhibitor compared to media control: metal-reactive individuals' lymphocytes, 6 days; for lymphocyte proliferation in response to Ni in the presence of inhibitor: compared with Ni challenge without inhibitor; for lymphocyte proliferation to Ni combined with inhibitor compared to media control: versus media challenge; for lymphocyte proliferation, mean response to Ni: Ni alone
Description: De-identified human peripheral blood mononuclear cells were isolated from 30 mL of peripheral blood using density gradient separation (Ficoll-isopaque, Pharmacia, Piscataway, N.J.). Ficoll gradient separated mononuclear cells are generally comprised of 85-95% lymphocytes with 5-13% monocytes and <0.1% dendritic cells with limited contamination (i.e., <5% erythrocytes and <3% granulocytes). Collected PBMCs (white buffy coat) were washed in sterile 1×PBS and resuspended in RPMI-1640 medium with 10% autologous serum and cultured with either no metal (plain media) as a negative control, PHA as a positive control, or with soluble nickel (NiCl2) or cobalt (CoCl2) at 37° C. and […] for 6 days. At day 5 of cell culture, ^3H-thymidine was added. At day 6, T-cell proliferation was assessed via ^3H-thymidine incorporation that was determined using a beta scintillation counter.
as §1, §2

[3] = tested on: IFN-γ; assay: Sandwich ELISA for human IFN-γ in supernatants of metal-challenged PBMCs; assay type: cell-based; settings: metal-reactive individuals' lymphocytes; supernatants harvested on day 6
Description: as §1, §2, §3

[4] = tested on: IL-17A/F; assay: Sandwich ELISA for mouse IL-17A/F in supernatants of metal-challenged CD4+ T cells; assay type: cell-based; settings: CD4+ T cells from metal-sensitized Caspase-1−/− mice
Description: (§4) In addition to determination of paw swelling after recall with NiCl2, proliferation in vitro of lymphocytes was measured. Spleens were obtained aseptically 48 h after challenge and splenic effector CD4+ T cells were isolated using negative selection kit following manufacturer's protocol (EasySep Mouse CD4+ T cell isolation kit; 2.5×10^5 cells/per well in 96 well flat bottom plates). Splenic CD4+ T cells were co-incubated with syngeneic mitomycin-C treated naïve splenic (2.5×10^5 cells/per well) antigen-presenting cells (APCs) with or without 0.0001 mM or 0.001 mM of soluble metal ions NiCl2 or CoCl2, and 0.01 mg/mL phytohemagglutinin (PHA) as a positive control, in RPMI 1640 media containing 10% fetal bovine serum (FBS; Hyclone Laboratories, Inc.) at 37° C. and […] for 4 days. Syngeneic naïve spleen APCs were incubated at 5×10^6 cells/mL with 25 μg/mL of mitomycin-C for 30 minutes to inactivate proliferation. At day 3 of cell culture, ^3H-thymidine was added. At day 4, T-cell proliferation was assessed via ^3H-thymidine incorporation that was determined using a beta scintillation counter.
(§5) Sandwich ELISAs for mouse IL-17A/F and IFN-γ (R&D Systems Inc., Minneapolis, Minn.) were used to detect cytokine production in both non-sensitized and metal-sensitized female mouse spleens and isolated CD4+ T-cells that were harvested 48 h post paw re-challenge to metal allergen (day 14). […]

[5] = tested on: IFN-γ; assay: Sandwich ELISA for mouse IFN-γ in supernatants of metal-challenged CD4+ T cells; assay type: cell-based; settings: CD4+ T cells from metal-sensitized Caspase-1−/− mice
Description: as §4, §5

[6] = tested on: metal-sensitized C57BL/6 mice; assay: In vivo delayed type hypersensitivity (DTH) to orthopedic implant metal(s): paw inflammation by digital caliber; settings: day 14, no treatment, p<0.0001 vs vehicle group
Description: DTH responses comprise two phases: (1) sensitization and (2) effector phase. […] Ashrin et al., J. Immunol. 192(9):4025-4031 (2014); Sato et al., Clin. Exp. Allergy 37(5):743-751 (2007). […] (2) Effector phase to implant metal(s): Re-exposure to the metal allergen leads to DTH reaction during the effector phase. Therefore, on day 12, a 50 μL mixture of either sterile 1×PBS (control group) or NiCl2 (metal-sensitized group) with an equivalent volume of CFA was injected subcutaneously on top of the right paw. DTH was determined 48 h post re-exposure to metal allergen (day 14) by measuring changes in paw inflammation using a digital caliber (blinded assessment) and the induced difference was recorded. Each group consisted of 3-5 mice and experiments were performed at least three independent times.
Anti-mouse IL-1R1: A set of metal-sensitized C57BL/6 female mice received local paw administration on day 12 with 200 μg of anti-mouse IL-1R1 (for local in vivo blocking of IL-1R during the effector phase of metal-DTH responses) (clone JAMA-147; BioLegend, San Diego, Calif.) in concert with NiCl2 and CFA. Rogers et al., Proc. Natl. Acad. Sci. USA 89(3):1011-1015 (1992); Rogers et al., J. Immunol. 153(5):2093-2101 (1994). […]

CC(C)(O)c1coc(S(=O)(=O)NC(=O)Nc2c3c(cc4c2CCC4)CCC3)c1 [MCC950, reference compound]
IL-17A/F production to metal challenge in the presence of inhibitor [1]: significantly suppressed
lymphocyte proliferation in response to Ni in the presence of inhibitor [2]: only a weak proliferative response
lymphocyte proliferation to Ni combined with inhibitor compared to media control [2]: significant increases in cell proliferation
IFN-γ production to metal challenge in the presence of inhibitor [3]: not affected

[Cl][Ni][Cl] [Ni, Nickel (II) chloride]
IL-17A/F mean secretion in response to Ni [4]: 131.5 pg/mL
IFN-γ mean secretion in response to Ni [5]: 956.6 pg/mL
lymphocyte proliferation, mean response to Ni ([2]; other groups of individuals (FIGS. 9A, 9B, 10A)): approximately 4,000 cpm
lymphocyte proliferation, mean response to Ni ([2]; subset of individuals tested with anti-IL-17A (n=11)): 10,600 cpm
mean paw inflammation upon challenge with Ni [6]: 6.195 mm

Cbz-WEHD-CH2F [Caspase-1 inhibitor, reference compound]
IL-17A/F production to metal challenge in the presence of inhibitor [1]: significantly suppressed
lymphocyte proliferation in response to Ni in the presence of inhibitor [2]: significantly reduced lymphocyte reactivity
lymphocyte proliferation to Ni combined with inhibitor compared to media control [2]: significant increases in cell proliferation
IFN-γ production to metal challenge in the presence of inhibitor [3]: significantly suppressed both IL-17 and IFN-γ production

IL-1Ra: recombinant human IL-1Ra (R&D Systems), IL-1 receptor antagonist; b178 equates IL-1Ra with ANAKINRA
IL-17A/F production to metal challenge in the presence of inhibitor [1]: significantly suppressed
relative effectiveness in mitigating lymphocyte metal reactivity (comparison among inhibitors) ([2]; comparison of MCC950, Caspase-1 inhibitor, IL-1Ra, anti-IL-17A): most effective inflammasome based inhibitor
lymphocyte proliferation in response to Ni in the presence of inhibitor [2]: significantly reduced lymphocyte proliferative responses
lymphocyte proliferation to Ni combined with inhibitor compared to media control [2]: non-significantly different compared to media challenge
